From article PMC6815936, “A Pan-Cyclophilin Inhibitor, CRV431, Decreases Fibrosis and Tumor Development in Chronic Liver Disease Models” (The Journal of Pharmacology and Experimental Therapeutics, 2019)

Test system: CCl4-induced liver fibrosis in C57BL/6 mice
Assay: Carbon tetrachloride mouse model of liver fibrosis
Format: in vivo
Details: OCA 10 mg/kg per day; combination 50 and 10 mg/kg per day, oral, 6 weeks
Method: Carbon tetrachloride (CCl4)–induced liver fibrosis was conducted in C57BL/6J male mice starting at 7 weeks of age. Mice were injected intraperitoneally twice per week with 0.5–0.75 ml/kg CCL4 (289116; Sigma-Aldrich) and corn oil (0.05 ml total dose per mouse) for 6 weeks. CRV431, obeticholic acid (OCA, HY-12222; MedChemExpress), and vehicle were administered by daily oral gavage for the entire duration of the study. CRV431 and OCA were dissolved in a self-microemulsifying drug vehicle ([Trepanier et al., 2018]), and then diluted with PBS. CRV431 was administered at 50 mg/kg per day, and OCA was administered at 10 mg/kg per day.
Blood and livers were collected at the end of the NASH and CCl4 studies. In some studies, serum or plasma was isolated from freshly-collected blood, whereas in other studies blood was frozen for later analysis of CRV431 concentration. Livers were immersion-fixed in zinc-formalin and paraffin-embedded for histologic processing. Liver sections were stained with hematoxylin and eosin for assessment of inflammation, ballooning, and steatosis, and with sirius red for assessment of collagen I and III (fibrosis). Sirius red staining was quantified by blinded analysis in one section per liver using ImageJ software. […]

Q: How did the “effect on liver fibrosis, sirius red staining (in words)” value turn out when `CC[C@H]1[C@@H](O)[C@@H]2[C@H](CC[C@]3(C)[C@@H]([C@H](C)CCC(=O)O)CC[C@@H]23)[C@@]2(C)CC[C@@H](O)C[C@@H]12` [OCA, obeticholic acid, reference compound] was run?
A: no statistically significant effect
